# Reference: US11013730B1, “Composition comprising selenazol or thiazalone derivatives and silver and method of treatment therewith” (Thioredoxin Systems AB, priority 2014, dated 2021)
# Like-named read-outs stand apart in the source and are kept apart here.
# Experiments:
# [1] = target: T1, Mammalian TrxR (Homo sapiens, UniProt Q16881); assay: Kinetic parameters with mammalian TrxR; assay type: biochemical; details: sulphur analogues
# T1 sequence (Q16881 151-649 limits assumed): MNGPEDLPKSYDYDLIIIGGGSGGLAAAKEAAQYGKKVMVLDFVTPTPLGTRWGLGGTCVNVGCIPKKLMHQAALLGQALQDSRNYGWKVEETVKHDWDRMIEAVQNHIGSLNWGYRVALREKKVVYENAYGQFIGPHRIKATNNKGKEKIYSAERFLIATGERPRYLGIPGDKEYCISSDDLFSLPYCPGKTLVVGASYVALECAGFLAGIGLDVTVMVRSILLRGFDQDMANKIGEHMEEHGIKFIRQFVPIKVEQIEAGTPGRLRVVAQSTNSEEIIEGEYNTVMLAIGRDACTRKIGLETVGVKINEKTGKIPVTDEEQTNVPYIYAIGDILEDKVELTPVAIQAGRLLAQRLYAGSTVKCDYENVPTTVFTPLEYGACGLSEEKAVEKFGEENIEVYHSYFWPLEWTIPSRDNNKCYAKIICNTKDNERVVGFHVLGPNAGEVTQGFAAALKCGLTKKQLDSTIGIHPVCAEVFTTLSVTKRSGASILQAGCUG
# [2] = target: T2, E. coli TrxR (Escherichia coli, UniProt P0A9P4); assay: Kinetic parameters (substrate) with E. coli TrxR; assay type: biochemical
# T2 sequence (P0A9P4 whole entry): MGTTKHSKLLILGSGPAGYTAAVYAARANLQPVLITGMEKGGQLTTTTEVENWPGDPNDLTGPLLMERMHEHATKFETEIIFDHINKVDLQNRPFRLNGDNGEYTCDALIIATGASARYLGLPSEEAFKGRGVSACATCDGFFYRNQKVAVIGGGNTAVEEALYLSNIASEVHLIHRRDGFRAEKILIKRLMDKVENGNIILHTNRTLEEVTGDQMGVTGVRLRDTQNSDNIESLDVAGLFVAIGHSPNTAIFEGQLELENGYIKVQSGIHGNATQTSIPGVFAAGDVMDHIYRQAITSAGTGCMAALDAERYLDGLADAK
# [3] = target: T1, Mammalian TrxR; details: from ref (3) / (32); cited from earlier work
# [4] = target: T2, E. coli TrxR; assay: E. coli TrxR inhibition, thioredoxin dependent DTNB reduction assay; assay type: biochemical
# Experimental: Further we examined the effect of ebselen in the reduction of disulfide by E. coli Trx and TrxR using both DTNB and insulin as substrates.
# All the benzisoselenazol-3(2H)-one and bisbenzisoselenazol-3(2H)-one derivatives were tested as potential E. coli TrxR inhibitors by standard DTNB assay. […] The reactions were started by adding 1 mM DTNB to the mixture of 100 nM TrxR, 2 μM Trx, 240 μM NADPH, and different concentration of inhibitor (1-40 μM). […] The reactions were started by adding 6 nM TrxR at room temperature. Inhibition constants (Ki) for all the compounds were measured from Dixon plot, which plots 1/v versus […], I=Inhibitor concentration).
# [5] = target: T2, E. coli TrxR; assay: as above; assay type: biochemical; details: Lineweaver-Burk plots, reduction of DTNB; read-out: Ki (dissociation constant of inhibitor-TrxR complex), competitive inhibition of E. coli TrxR
# [6] = target: E. coli Trx-(SH)2 (Escherichia coli, UniProt P0AA25); details: fluorescence spectroscopy, ref (32); cited from earlier work
# Sequence of E. coli Trx-(SH)2 (P0AA25 whole entry): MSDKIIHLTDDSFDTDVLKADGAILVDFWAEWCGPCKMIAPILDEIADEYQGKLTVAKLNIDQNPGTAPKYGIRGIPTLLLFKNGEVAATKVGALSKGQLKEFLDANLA
# [7] = target: H. pylori TrxR (Helicobacter pylori, UniProt P56431); assay: H. pylori TrxR activity, insulin reduction assay; details: 4, 20, and 40 μM
# Sequence of H. pylori TrxR (P56431 whole entry): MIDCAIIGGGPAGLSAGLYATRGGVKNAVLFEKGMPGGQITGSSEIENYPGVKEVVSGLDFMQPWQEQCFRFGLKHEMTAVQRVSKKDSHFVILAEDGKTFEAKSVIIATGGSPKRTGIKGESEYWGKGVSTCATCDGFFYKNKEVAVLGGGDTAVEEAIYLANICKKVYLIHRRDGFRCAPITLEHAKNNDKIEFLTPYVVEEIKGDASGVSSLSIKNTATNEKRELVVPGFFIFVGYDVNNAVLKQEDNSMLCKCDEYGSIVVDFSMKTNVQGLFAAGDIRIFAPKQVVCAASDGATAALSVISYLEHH
# [8] = system: E. coli; assay type: cell-based, Escherichia coli
# [9] = system: H. pylori strains; assay: MIC against H. pylori strains
# [10] = system: Staphylococcus aureus; details: ref (10); cited from earlier work
# [11] = system: HEK 293T cells; assay: HEK 293T cells growth (cytotoxicity); assay type: cell-based
# [12] = target: T3, recombinant rat TrxR (Rattus norvegicus, UniProt O89049); assay: Inhibition of mammalian (recombinant rat) TrxR
# T3 sequence (O89049 1-499): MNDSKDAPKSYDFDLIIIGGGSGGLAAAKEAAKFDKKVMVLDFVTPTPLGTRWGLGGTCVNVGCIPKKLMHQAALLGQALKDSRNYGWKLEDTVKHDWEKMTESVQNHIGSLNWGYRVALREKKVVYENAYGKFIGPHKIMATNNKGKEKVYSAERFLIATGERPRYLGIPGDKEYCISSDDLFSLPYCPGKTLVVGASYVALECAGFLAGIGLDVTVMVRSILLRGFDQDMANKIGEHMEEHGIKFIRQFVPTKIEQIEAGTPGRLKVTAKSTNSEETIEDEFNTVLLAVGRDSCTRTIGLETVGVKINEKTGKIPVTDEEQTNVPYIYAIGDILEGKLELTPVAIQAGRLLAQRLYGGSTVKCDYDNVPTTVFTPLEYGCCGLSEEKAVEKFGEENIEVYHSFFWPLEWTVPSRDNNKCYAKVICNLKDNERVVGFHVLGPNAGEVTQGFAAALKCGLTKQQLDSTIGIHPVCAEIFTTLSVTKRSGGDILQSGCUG
# [13] = Glutathione peroxidase (GPx) activity of the compounds; assay type: biochemical; details: for Relative GPx activity: EbSe 6 = 1
# [14] = system: Gor DHB4 E. coli; assay: Inhibition of bacterial growth (MIC), Gor DHB4 E. coli; details: for MIC: Escherichia coli, DHB4E.COLI, read-out: MIC for Gor DHB4 E. coli
# Excerpt: (§1) Here E. coli DHB4 strains wt, gshA^−, gor^−, oxyR^− were used as the model to test the antibiotics activity of these ebselen derivatives.
# [15] = system: wild type DHB4 E. coli; assay: Inhibition of bacterial growth (MIC), wild type DHB4 E. coli; details: for MIC: Escherichia coli, DHB4E.COLI, read-out: MIC for wild type DHB4 E. coli
# Excerpt: as §1
# [16] = system: gshA^− DHB4 E. coli; assay: Inhibition of bacterial growth (MIC), gshA^− DHB4 E. coli; details: for MIC: Escherichia coli, read-out: MIC for gshA^− DHB4 E. coli; for sensitivity of gshA^− / gor^− strains compared with wild type: E. coli strains wt
# Excerpt: as §1
# [17] = DTNB assay, 100 nM TrxR, 2 μM Trx, 240 μM NADPH, 1 mM DTNB, read-out: IC50 for E. coli TrxR
# [18] = Dixon plot, 6 nM TrxR, Trx 1, 2 or 4 μM, read-out: Ki for E. coli TrxR
# [19] = Dixon plot, 6 nM TrxR, Trx 1, 2 or 4 μM
# [20] = Homo sapiens, HEK-293T; read-out: IG50 for HEK 293T
# [21] = Homo sapiens, HEK-293T, read-out: IG50 for HEK 293T
smiles,measurement,setting,value
O=C(Nc1ccccc1)c1ccccc1SSc1ccccc1C(=O)Nc1ccccc1 [(EbS)2],Km,[1],47 µM
same,"kcat, mammalian TrxR",[1],25 s⁻¹
same,Km,[2],27.6 µM
same,"kcat, E. coli TrxR",[2],1.67 s⁻¹
O=C(Nc1ccccc1)c1ccccc1[Se][Se]c1ccccc1C(=O)Nc1ccccc1 [(EbSe)2],Km,[3],40 µM
same,"kcat, mammalian TrxR",[3],1.32 s⁻¹
same,inhibition of E. coli TrxR (in words),[4],strongly inhibited
same,Ki,[5],0.46 ± 0.05 µM
same,second-order rate constant of direct reduction by reduced E. coli Trx,[6],1700 M⁻¹ s⁻¹
O=c1c2ccccc2sn1-c1ccccc1 [EbS],H. pylori TrxR activity,[7],inhibited
same,enhancement of the toxicity of silver toward bacteria,[8],less enhancement
same,Km,[1],2.5 µM
same,"kcat, mammalian TrxR",[1],23.33 s⁻¹
same,inhibition of E. coli TrxR (in words),[4],not inhibitors
same,"kcat, E. coli TrxR",[2],11.7 s⁻¹
same,MIC,[9]; NCTC11637 strain,1.56 µg/mL
same,MIC,[9]; strain YS-16,0.39 µg/mL
same,antibacterial activity (in words),[10],lost the antibacterial activity
NCCn1[se]c2ccccc2c1=O [EbSe5],IC50,[4]; [17],2.12 µM
same,Ki,[4]; [18],0.035 µM
O=c1c2cccnc2[se]n1-c1ccc(Cl)cc1 [EbSe19],IC50,[4]; [17],3 µM
same,Ki,[4]; [18],0.5 µM
O=c1[nH][se]c2ccccc12 [EbSe 2],IC50,[4]; [17],15 µM
same,Ki for E. coli TrxR,[4]; [19],Not detected
same,Ki,[4]; [18],1 µM
same,IC50,[11]; [20],95 µM
same,IC50,[12],> 10 µM
same,Relative GPx activity,[13],0.97
Cn1[se]c2ccccc2c1=O [EbSe 3],IC50,[4]; [17],15 µM
same,Ki for E. coli TrxR,[4]; [19],Not detected
same,IC50,[11]; [20],100 µM
same,IC50,[12],> 10 µM
same,Relative GPx activity,[13],1.2
CC(C)(C)n1[se]c2ccccc2c1=O [EbSe 4],IC50,[4]; [17],15 µM
same,Ki for E. coli TrxR,[4]; [19],Not detected
same,IC50,[11]; [20],75 µM
same,IC50,[12],> 10 µM
same,inhibition of mammalian TrxR (in words),[12],some activity
same,Relative GPx activity,[13],1.1
O=c1c2ccccc2[se]n1-c1ccc(Cl)cc1 [EbSe 7],MIC,[14],23 µM
same,IC50,[4]; [17],7 µM
same,Ki,[4]; [18],0.55 µM
same,IC50,[11]; [20],120 µM
same,IC50,[12],> 10 µM
same,MIC,[15],34 µM
same,Relative GPx activity,[13],0.64
same,MIC,[16],20 µM
Cc1cc(Cl)ccc1-n1[se]c2ccccc2c1=O [EbSe 8],MIC,[14],24 µM
same,IC50,[4]; [17],6 µM
same,Ki,[4]; [18],0.25 µM
same,IC50,[11]; [20],80 µM
same,IC50,[12],> 10 µM
same,MIC,[15],47 µM
same,Relative GPx activity,[13],0.67
same,MIC,[16],13 µM
O=C(O)c1ccccc1-n1[se]c2ccccc2c1=O [EbSe 9],MIC,[14],31 µM
same,IC50,[4]; [17],7.5 µM
same,Ki,[4]; [18],1.2 µM
same,IC50,[11]; [20],> 160 µM
same,IC50,[12],0.8 µM
same,MIC,[15],49 µM
same,Relative GPx activity,[13],2.1
same,MIC,[16],24 µM
O=C(O)c1ccc(-n2[se]c3ccccc3c2=O)cc1 [EbSe 10],IC50,[4]; [17],15 µM
same,Ki for E. coli TrxR,[4]; [19],Not detected
same,IC50,[11]; [20],55 µM
same,IC50,[12],> 10 µM
same,Relative GPx activity,[13],1.8
O=c1c2ccccc2[se]n1-c1ccc(Cl)cc1 [EbSe 11],MIC for Gor DHB4 E. coli,[14],No Inhibition
same,IC50,[4],> 40 µM
same,Ki,[4],0.3 µM
same,Ki for E. coli TrxR,[4]; [19],Not detected
same,IC50,[11]; read-out: IG50 for HEK 293T,> 160 µM
same,MIC for wild type DHB4 E. coli,[15],No Inhibition
same,Relative GPx activity,[13],0.87
same,MIC for gshA^− DHB4 E. coli,[16],No Inhibition
O=c1c2ccccc2[se]n1-c1ccccc1[N+](=O)[O-] [EbSe 12],MIC for Gor DHB4 E. coli,[14],No Inhibition
same,IC50,[4]; [17],3 µM
same,Ki,[4]; [18],0.25 µM
same,IC50,[11]; [21],80 µM
same,IC50,[12],> 10 µM
same,MIC for wild type DHB4 E. coli,[15],No Inhibition
same,GPx activity (in words),[13],no GPx activity
same,Relative GPx activity,[13],0.93
same,MIC for gshA^− DHB4 E. coli,[16],No Inhibition
same,sensitivity of gshA^− / gor^− strains compared with wild type,[16],same sensitivity
O=c1c2ccccc2[se]n1-c1ccncc1 [EbSe 13],MIC,[14],24 µM
same,IC50,[4]; [17],3 µM
same,Ki,[4]; [18],1.5 µM
same,IC50,[11]; [20],60 µM
same,IC50,[12],> 10 µM
same,MIC,[15],45 µM
same,Relative GPx activity,[13],1.4
same,MIC,[16],21 µM
O=c1c2ccccc2[se]n1CCn1[se]c2ccccc2c1=O [EbSe 14],MIC,[14],19 µM
same,IC50,[4]; [17],2 µM
same,Ki,[4]; [18],0.05 µM
same,MIC,[15],23 µM
same,sensitivity of gshA^− / gor^− strains compared with wild type,[16],same sensitivity
same,MIC,[16],23 µM
O=c1c2ccccc2[se]n1CCCn1[se]c2ccccc2c1=O [EbSe 15],Ki,[4],0.038 µM
same,IC50,[4]; [17],2.1 µM
same,IC50,[11]; [20],9.5 µM
O=c1c2ccccc2[se]n1CCCCCCn1[se]c2ccccc2c1=O [EbSe 16],MIC,[14],35 µM
same,IC50,[4]; [17],2.25 µM
same,Ki,[4]; [18],0.025 µM
same,Ki,"[4]; for the selenium released stock, read-out: Ki for E. coli TrxR, selenium released stock",0.01 µM
same,IC50,[11]; [21],9.2 µM
same,MIC,[15],20 µM
same,sensitivity of gshA^− / gor^− strains compared with wild type,[16],same sensitivity
same,MIC,[16],20 µM
CCOC(=O)c1cccnc1[Se]Nc1ccc(Cl)cc1 [EbSe 22],IC50,[4]; [17],> 10 µM
same,Ki,[4]; [18],7.5 µM
CCOC(=O)c1cccnc1[Se]Nc1ccc(Cl)cn1 [compound 2],MIC for Gor DHB4 E. coli,[14],No Inhibition
same,IC50,[4]; [17],> 10 µM
same,Ki,[4]; [18],7.5 µM
same,IC50,[11]; [21],60 µM
same,MIC for wild type DHB4 E. coli,[15],No Inhibition
same,MIC for gshA^− DHB4 E. coli,[16],No Inhibition
Cc1ncc([N+](=O)[O-])n1CCO [metronidazole],MIC,[9]; Helicobacter pylori,6.25 µg/mL
same,MIC,"[9]; Helicobacter pylori, NCTC11637",0.78 µg/mL
"O=[N+]([O-])[O-].[Ag+] [silver, Silver nitrate]","MIC, silver alone",[8]; 16 h,about 42 μM
same,MIC for silver,"[8]; in the presence of 2 μM ebselen, 16 h",8.4 µM
same,silver concentration that inhibited E. coli growth,"[8]; in the presence of 8 μM ebselen, 16 h",1 µM
